From paper PMC5476196, “Uptake, biotransformation and elimination of selected pharmaceuticals in a freshwater invertebrate measured using liquid chromatography tandem mass spectrometry” (Chemosphere, 2017)
Several values for one entry are separate records, joined by “and”; a condition that tells them apart may be missing. Equal entries are not always repeated. Structures can show the parent of a compound that is named as a salt.

How the values were obtained:
Gammarus pulex [1] = experiment: Biotransformation products in G. pulex after exposure to propranolol, carbamazepine or diazepam (LC-MS/MS); details: for detection of biotransformation product in G. pulex at 96 h: after exposure to the precursor compound, end of depuration; for k2 of biotransformation product: depuration phase
Protocol: (§1) Individual adult organisms (n = 25), both male and female (>5 mg wet weight) were placed in Pyrex glass beakers. G. pulex were carefully transferred to beakers using blunt forceps to avoid any harm to the organisms before exposure. Each beaker contained 25 organisms in 200 mL of exposure media (AFW and test compound). […] All exposure media contained <0.001% of organic solvent (methanol). A total of 300 organisms were used per compound exposure and were sampled for n = 3 per time-point. […] These were subsequently analysed for background contamination. […] Each animal specimen was rinsed with ultra-pure water and then frozen at −20 °C.
(§2) Briefly, separations were performed on an Agilent HP1100 LC system configured with a Waters SunFire reversed-phase C18 column (150 mm × 2.1 mm, 2.5 μM particle size). […] Detection was performed using a Waters Quattro triple quadrupole mass spectrometer with electrospray ionisation operated in positive and negative polarity switching mode. Quantification of analytes was performed using 3-point internal standard matrix-matched calibration using the peak area ratio of non-labelled analyte (precursor range: 50–300 ng g^−1, biotransformation product range: 50–150 ng g^−1) to the stable isotope labelled internal standard (SIL-IS) (100 ng g^−1).
A matrix effect and recovery experiment was performed for these additional analytes before exposures were performed (SI Table S5).

[2] = for Concentration, 24 h: exposure media after 24 h of exposure with Day 1 solution; for Concentration, 24 h / Concentration, Day 1 (initial pharmaceutical concentration on day 1): n = 3; for Concentration, 48 h: exposure media after 24 h of exposure with Day 2 solution, n = 3 (propranolol n = 2); for Concentration, Day 2 (initial pharmaceutical concentration on day 2): n = 2; for Concentration, Day 1 (initial pharmaceutical concentration on day 1): nominal 1 μg L^−1 (propranolol 10 μg L^−1); for stability of aqueous pharmaceutical concentration: across the exposure period
Protocol: as §1
(§3) Water samples collected from exposure experiments were filtered using Whatman filters (0.2 μM) and directly injected onto the LC-MS/MS for analysis. For G. pulex, A mass of 50 mg of lyophilised and ground material was extracted by glass bead pulverisation in 5 mL of acetonitrile and diluted with 100 mL of ammonium acetate buffer (10 mM) for loading onto Waters HLB solid phase extraction (SPE) cartridges (6 cc, 200 mg sorbent).

in vivo = details: both, Gammarus pulex, in vivo, G. pulex; for concentration at 6 h: 6h Mean; for concentration at 24 h: 24h Mean
Protocol: as §1, §3, §2
(§4) Herein, the authors define BCFtotal as the summation of the BCF of both parent/precursor and biotransformation products (i.e. the total body burden). Whereas, BCFparent will be used to describe the BCF determined for the parent compound alone.

Gammarus pulex [3] = experiment: in vivo; details: for BCFss: steady-state BCF estimation, 48 h
Protocol: as §1, §3, §2, §4

G. pulex = details: ref Miller et al., 2016, cited from earlier work; for SeqBCF, Full Design: sequential BCF; for SeqBCF^a, Full Design: sequential estimation using minitab; for SimBCF, Full Design: simultaneous BCF
[4] = tested on: Pimephales notatus and I. punctatus; design: method as in Garcia et al., 2012; details: depending on tissue; ref Garcia et al., 2012; cited from earlier work
Gammarus fossarum = details: ref Sordet et al., 2016; cited from earlier work
[5] = tested on: Mytilus galloprovincialis; details: ref Gomez et al., 2012; cited from earlier work
[6] = pH 8.19, Concentration, n=3, exposure 1 μg L^−1 (warfarin, propranolol 10 μg L^−1)
[7] = pH 8.19, Concentration, 48h Mean, n=3, exposure 1 μg L^−1 (warfarin, propranolol 10 μg L^−1)
[8] = pH 8.19, internal concentration at the end of the uptake phase, 48 h, exposure 1 μg L^−1 (propranolol 10 μg L^−1)
[9] = k1 re-calculated over time intervals of the uptake phase
[10] = sequential, Levenberg-Marquardt algorithm, exposure 1 μg L^−1 (warfarin, propranolol 10 μg L^−1)
[11] = sequential, linear regression on elimination data, exposure 1 μg L^−1 (warfarin, propranolol 10 μg L^−1)
[12] = simultaneous parametrisation, exposure 1 μg L^−1 (warfarin, propranolol 10 μg L^−1)
[13] = both, Gammarus pulex, in vivo, pH 8.19

Compound: NC(=O)N1c2ccccc2C2OC2c2ccccc21 (centres unmarked) [carbamazepine-10,11-epoxide]
- detection of biotransformation product in G. pulex at 96 h (Gammarus pulex [1]): not detected
- detection of biotransformation product in G. pulex (Gammarus pulex [1]; carbamazepine exposure, 24 h and 48 h): detection
- quantifiability of biotransformation product in G. pulex (Gammarus pulex [1]; carbamazepine exposure, signals below signal to noise ratio of 10:1): not quantifiable

Compound: CC(C)NCC(O)COc1cccc2ccccc12 (centres unmarked) [Propranolol, Propranolol hydrochloride]
- Concentration, 24 h [2]: 8.92 ng/mL
- Concentration, 48 h [2]: 6.41 μg L^−1 and 6.41 ^a μg L^−1
- decline of aqueous concentration ([2]; exposure media, after the first 24 h): 29%
- Concentration, Day 2 (initial pharmaceutical concentration on day 2) ([2]; exposure media): 8.98 ng/mL
- Concentration, Day 1 (initial pharmaceutical concentration on day 1) ([2]; exposure media): 9.22 ng/mL

Compound: O=C1CN=C(c2ccccc2)c2cc(Cl)ccc2N1 [nordiazepam]
- concentration of biotransformation product (higher than the parent compound) (Gammarus pulex [1]; G. pulex, diazepam exposure): 94 ng g^−1 dw
- k2 of biotransformation product (Gammarus pulex [1]; G. pulex, diazepam exposure): 0.0194 day⁻¹
- mean concentration of biotransformation product reached (Gammarus pulex [1]; G. pulex, diazepam exposure, time not stated): 64 ± 27 ng g^−1 dw

Compound: CN1C(=O)C(O)N=C(c2ccccc2)c2cc(Cl)ccc21 (centres unmarked) [Temazepam, temazepam]
- concentration at 6 h (in vivo; [6]): 20 ng/g
- concentration at 24 h (in vivo; [6]): 32 ng/g
- concentration at 48 h (in vivo; [7]): 38 ng/g
- concentration at 48 h (in vivo; [8]): ≤ 51 ng/g
- BCFparent from the average of k1 over the 48 h time interval (Gammarus pulex [3]; [9]): 40 L/kg
- BCFparent, Sequential a (Gammarus pulex [3]; [10]): 41 L/kg
- k1, Sequential a (Gammarus pulex [3]; [10]): 2.8514
- k2, Sequential a (Gammarus pulex [3]; [10]): 0.0702
- BCFparent, Sequential b (Gammarus pulex [3]; [11]): 41 L/kg
- k1, Sequential b (Gammarus pulex [3]; [11]): 2.751
- k2, Sequential b (Gammarus pulex [3]; [11]): 0.0669
- BCFparent, Simultaneous (Gammarus pulex [3]; [12]): 37 L/kg
- k1 (uptake rate constant), Simultaneous (Gammarus pulex [3]; [12]): 4.3326
- k2 (depuration rate constant), Simultaneous (Gammarus pulex [3]; [12]): 0.1186
- BCFss (Gammarus pulex [3]): 38
- stability of aqueous pharmaceutical concentration [2]: remained stable
- Concentration, 24 h [2]: 0.85 ng/mL
- Concentration, 48 h [2]: 1.03 µg/L
- Concentration, Day 2 (initial pharmaceutical concentration on day 2) ([2]; exposure media): 1.17 ng/mL
- Concentration, Day 1 (initial pharmaceutical concentration on day 1) ([2]; exposure media): 0.96 ng/mL
- mean concentration of biotransformation product at 48 h (end of the uptake phase) (Gammarus pulex [1]; G. pulex, after exposure to the precursor compound (propranolol 10 μg L^−1, diazepam 1 μg L^−1)): 6 ± 3 ng g^−1 dw
- k2 of biotransformation product (Gammarus pulex [1]; G. pulex, diazepam exposure): 0.016 day⁻¹
- detection of biotransformation product in G. pulex at 96 h (Gammarus pulex [1]): not detectable

Compound: O=C(O)Cc1ccccc1Nc1c(Cl)cccc1Cl [Diclofenac]
- SeqBCF, Full Design (G. pulex): 21
- SeqBCF^a, Full Design (G. pulex): 27
- SimBCF, Full Design (G. pulex): 14

Compound: NC(=O)N1c2ccccc2C=Cc2ccccc21 [Carbamazepine, carbamazepine]
- concentration at 6 h (in vivo; [6]): 8 ng/g
- concentration at 24 h (in vivo; [6]): 11 ng/g
- concentration at 48 h (in vivo; [7]): 14 ng/g
- concentration at 48 h (in vivo; [8]): ≤ 51 ng/g
- BCFparent from the average of k1 over the 48 h time interval (Gammarus pulex [3]; [13]): 26 L/kg
- stability of aqueous pharmaceutical concentration [2]: remained stable
- Concentration, 24 h [2]: 1.01 ng/mL
- Concentration, 48 h [2]: 1.07 µg/L
- Concentration, Day 2 (initial pharmaceutical concentration on day 2) ([2]; exposure media): 1.08 ng/mL
- Concentration, Day 1 (initial pharmaceutical concentration on day 1) ([2]; exposure media): 1.12 ng/mL
- BCF in two species of fish (Pimephales notatus and I. punctatus) [4]: < 7 L/kg
- BCF in Gammarus fossarum (Gammarus fossarum): 5 L/kg

Compound: COc1ccc(CC(C)NCC(O)c2ccc(O)c(NC=O)c2)cc1 (centres unmarked) [Formoterol]
- SeqBCF, Full Design (G. pulex): 33
- SeqBCF^a, Full Design (G. pulex): 18
- SimBCF, Full Design (G. pulex): 14

Compound: COCCc1ccc(OCC(O)CNC(C)C)cc1 (racemic) [Metoprolol, (±)-metoprolol (+)-tartrate salt]
- concentration at 48 h (in vivo; [8]): ≤ 51 ng/g
- BCFparent, Sequential a (Gammarus pulex [3]; [13]): 39 L/kg
- BCFparent, Sequential b (Gammarus pulex [3]; [13]): 37 L/kg
- BCFparent, Simultaneous (Gammarus pulex [3]; [13]): 17 L/kg
- k1 (uptake rate constant), Simultaneous (Gammarus pulex [3]; [13]): 0.4413
- k1, Sequential a (Gammarus pulex [3]; [13]): 0.2788
- k1, Sequential b (Gammarus pulex [3]; [13]): 0.2855
- k2 (depuration rate constant), Simultaneous (Gammarus pulex [3]; [13]): 0.0259
- k2, Sequential a (Gammarus pulex [3]; [13]): 0.0071
- k2, Sequential b (Gammarus pulex [3]; [13]): 0.0078
- BCFss (Gammarus pulex [3]): 9
- stability of aqueous pharmaceutical concentration [2]: remained stable
- Concentration, 24 h [2]: 0.72 ng/mL
- Concentration, 48 h [2]: 0.87 µg/L
- Concentration, Day 2 (initial pharmaceutical concentration on day 2) ([2]; exposure media): 0.86 ng/mL
- Concentration, Day 1 (initial pharmaceutical concentration on day 1) ([2]; exposure media): 0.77 ng/mL

Compound: CN(C)CCCN1c2ccccc2CCc2ccccc21 [Imipramine]
- SeqBCF, Full Design (G. pulex): 4533
- SeqBCF^a, Full Design (G. pulex): 3811
- SimBCF, Full Design (G. pulex): 212

Compound: COc1cc(Cc2cnc(N)nc2N)cc(OC)c1OC [Trimethoprim]
- Concentration, 24 h [2]: 1.01 ng/mL
- Concentration, 48 h [2]: 0.97 µg/L
- Concentration, Day 2 (initial pharmaceutical concentration on day 2) ([2]; exposure media): 0.99 ng/mL
- Concentration, Day 1 (initial pharmaceutical concentration on day 1) ([2]; exposure media): 1.09 ng/mL

Compound: O=C1Nc2ccc(Cl)cc2C(c2ccccc2)=NC1O (centres unmarked) [oxazepam]
- reduction of mean internal concentration over the 48 h depuration period (Gammarus pulex [1]; G. pulex, diazepam exposure): 21 ng g^−1 dw
- k2 of biotransformation product (Gammarus pulex [1]; G. pulex, diazepam exposure): 0.009 day⁻¹
- BCF in Gammarus fossarum (Gammarus fossarum): 22 L/kg

Compound: CC(C)(C)NCC(O)c1cc(O)cc(O)c1 (centres unmarked) [Terbutaline]
- SeqBCF, Full Design (G. pulex): 19
- SeqBCF^a, Full Design (G. pulex): 22
- SimBCF, Full Design (G. pulex): 12

Compound: CN1C(=O)CN=C(c2ccccc2)c2cc(Cl)ccc21 [Diazepam, diazepam]
- concentration at 6 h (in vivo; [6]): 31 ng/g
- concentration at 24 h (in vivo; [6]): 37 ng/g
- BCFparent from the average of k1 over the 48 h time interval (Gammarus pulex [3]; [9]): 48 L/kg
- BCFparent, Sequential a (Gammarus pulex [3]; [10]): 58 L/kg
- k1, Sequential a (Gammarus pulex [3]; [10]): 2.6469
- k2, Sequential a (Gammarus pulex [3]; [10]): 0.046
- BCFparent, Sequential b (Gammarus pulex [3]; [11]): 53 L/kg
- k1, Sequential b (Gammarus pulex [3]; [11]): 3.0917
- k2, Sequential b (Gammarus pulex [3]; [11]): 0.0582
- BCFparent, Simultaneous (Gammarus pulex [3]; [12]): 41 L/kg
- k2 (depuration rate constant), Simultaneous (Gammarus pulex [3]; [12]): 0.2349
- BCFss (Gammarus pulex [3]): 45
- Concentration, 24 h [2]: 0.86 ng/mL
- Concentration, 48 h [2]: 0.89 µg/L
- Concentration, Day 2 (initial pharmaceutical concentration on day 2) ([2]; exposure media): 1.04 ng/mL
- Concentration, Day 1 (initial pharmaceutical concentration on day 1) ([2]; exposure media): 1.02 ng/mL
- BCF in marine mussel Mytilus galloprovincialis [5]: 51 L/kg
